Test results as given in US12636291B2, “Compositions and methods relating to use of agonists of ALPHA5-containing GABAA receptors” (Centre for Addiction and Mental Health, priority 2019, dated 2026).

System: Layer II/III pyramidal cells of prefrontal cortex (PFC)
Assay: Golgi staining morphological analysis of PFC pyramidal cells
Format: in vivo, mouse
Details: for spine density versus branch orders, overall: FIG. 17A; for spine density versus branch orders, basal dendrites: FIG. 17B; for spine density versus branch orders, apical dendrites: FIG. 17C; for spine density at 30 micron intervals from the soma, overall: FIG. 18A; for spine density at 30 micron intervals from the soma, basal dendrites: FIG. 18B; for spine density at 30 micron intervals from the soma, apical dendrites: FIG. 18C
Method: Details of the animals, materials, and methods used are provided following the discussion section below. Briefly, all studies discussed below were conducted using three groups of animals designated “Young” (2 months of age at the beginning of the 8-week study, 4 months of age at time of testing; “Old” (22 months of age at beginning of study, 24 months of age at time of testing); and “Treatment” (“Old” mice who received GL-II-73 in the drinking water for 8 weeks prior to evaluation of cognitive ability and pyramidal cell morphology). The last study further included a fourth group of animals, “Treatment+Washout” which were treated the same as the “Treatment” group except that the GL-II-73 was removed for a 1 week “wash-out” period prior to evaluation of pyramidal cell morphology.
Table 1 summarizes the results of a quantitative assessment of the morphological properties of Layer II/III pyramidal cells of prefrontal cortex (PFC) between Young, Old, and Treatment groups. […] Check marks represent countable spines; X's represent uncountable spines. The total number of sampled neurons in the PFC study was 72 cells with a total of 1,888 dendritic segments, 193,698 total dendritic lengths (μm), and 199,529 spine counts, respectively.
Table 2 summarizes the results of a quantitative assessment of the morphological properties of Layer II/III pyramidal cells of prefrontal cortex (PFC) between Young, Old, Old-Treatment, and Old-washout groups. As noted above, mice assigned to the “Young” group were 2 months of age at the beginning of the 8-week study and 4 months of age at time of testing; mice assigned to the “Old” group were 22 months of age at beginning of study, 24 months of age at time of testing; mice assigned to the “Old-Treatment” group were the same age as the “Old” group and received GL-II-73 in their drinking water for 8 weeks prior to evaluation; and mice assigned to the “Old-washout” group were the same age and treatment as the “Old-Treatment” group except that the GL-II-73 was removed for a 1 week “wash-out” period prior to evaluation. Differences in total dendritic lengths, overall spine counts, and overall spine density between groups were determined via ANOVA analysis.
Drug preparation and administration: The compound GL-II-73 was administered in the drinking water for 8 weeks, and made fresh every other day to prevent any deterioration of the compound in the water at room temperature. The solution was prepared at 30 mg/kg for an estimated volume of 8 ml/mouse/day, based on previous calculations. For the pilot study in the 5×FAD mouse model, the compound GL-II-73 was prepared for intra peritoneal injection only, at a dose of 10 mg/kg. Vehicle solution was made of 85% distilled water, 14% propylene glycol and 1% tween-80.
Brain collection and Golgi staining: Twenty-four hours after the completion of the behavioral testing, mice were euthanized using cervical dislocation. Brains were carefully collected from the skull, rinsed with MilliQ water and immersed in the Golgi staining solution provided by Neurodigitech (San Diego, CA). Six hours after the beginning of the incubation, the solution was changed to provide fresh solution. Then brains were left incubating for 14 days at room temperature, in the dark. For better results, vials containing the brains were gently swirled 3 times a week. After the incubation period, the staining solution was discarded and replaced by a storage solution and brains (n=4 per group) were shipped to Neurodigitech for morphological analysis.
Slice preparation: Brains were cut at 40 μm thickness using a cryostat and mounted on glass slides. The slides included serial coronal sections that covered the anterior-to-posterior axis of the brain. The sampling of ROIs included the basal and apical dendrites of pyramidal cells in Layers II/III of PFC. […]

[1] = Table 1, first study, Old, Treatment group, 4 samples
[2] = Table 2, washout study, Old, Treatment group, 4 samples
[3] = Table 2, Old, Washout group, 4 samples
[4] = washout study, FIG. 15B, Treatment vs Old mice, p<0.05
[5] = washout study, FIG. 15B, Washout vs Old mice, p<0.05
[6] = washout study, FIG. 16B, Old+Treatment vs Old mice, p<0.05
[7] = washout study, FIG. 16B, Washout vs Old mice, p<0.05
[8] = washout study, Old+Treatment vs Old mice, p<0.05
[9] = washout study, Washout vs Old mice, p<0.05

With `C#Cc1ccc2c(c1)C(c1ccccc1F)=N[C@H](C)c1c(C(=O)N(C)C)ncn1-2` (stereo in doubt) [GL-II-73, 8-ethynyl-6-(2-fluorophenyl)-N,N,4-trimethyl-4H-benzo[f]imidazo[1,5-a][1,4]diazepine-3-carboxamide] the Total segments (Table 1, first study, Old, Treatment group (GL-II-73 in drinking water 8 weeks), 4 samples) was 666, the Overall spinal density [1] was 1.01 and the “Total lengths (microns)” value [1] was 66,656 microns. The total spine counts [1] was 67,107, the Total segments (Table 2, washout study, Old, Treatment group (8 weeks GL-II-73), 4 samples) was 1180 and the Overall spinal density [2] was 1.11. The “Total lengths (microns)” value [2] was 58395 microns, the total spine counts [2] was 64863 and the Total segments (Table 2, Old, Washout group (8 weeks GL-II-73, then 1 week wash-out), 4 samples) was 1253. For the same compound, the Overall spinal density [3] was 1.17, the “Total lengths (microns)” value [3] was 59414 microns and the total spine counts [3] was 69305. The total dendritic lengths (first study, FIG. 3A, treatment group vs young mice, p>0.05) was “no significant difference in total dendritic length between the young mice and the treatment group”, the “total dendritic lengths, basal dendrite” value (first study, FIG. 3B, between groups, p>0.05) was “no difference was found in the basal dendrite between groups” and the “total dendritic lengths, apical dendrites” value (first study, FIG. 3B, treatment group vs old mice, p<0.05) was “higher total dendritic lengths of apical dendrites than old mice”. The total spine counts (first study, FIG. 4A, treatment group vs old mice, p<0.05) was “higher spine counts than old mice”, the “total spine counts, apical dendrites” value (first study, FIG. 4B, treatment group vs old mice, p<0.05) was “higher spine count than old mice” and the “total spine counts, basal dendrites” value (first study, FIG. 4B, treatment group vs young mice, p>0.05) was “no difference in both basal and apical dendrites between young mice and the treatment group”. The overall spine density (first study, FIG. 5A, treatment group vs old mice, p<0.05) was “higher density than old mice”, the “spine density, apical dendrites” value (first study, FIG. 5B, treatment group vs old mice, p>0.05) was “no difference between old mice and the treatment group” and the “spine density × branch orders, overall” value (first study, FIG. 6A, treatment group vs old mice, p<0.05) was “higher density at the 1st branch order than old mice”. The “spine density × branch orders, basal dendrites” value (first study, FIG. 6B, treatment group vs old mice, p<0.05) was “significantly higher density at the 1st branch order than old mice”, the “spine density × branch orders, apical dendrites” value (first study, FIG. 6C, treatment group vs old mice, p<0.05) was “higher density at the 1st order than old mice” and the “spine density × every 30 micron interval from soma, overall” value (first study, FIG. 7A, Sholl analysis, treatment group vs old mice, p<0.05) was “higher density at 180 micron interval from soma than old mice”. The “spine density × every 30 micron interval from soma, apical dendrites” value (first study, FIG. 7C, treatment group vs old mice, p<0.05) was “higher density at 180 micron interval from soma of the dendritic field than old mice”, the “frequency of intersections × 30 micron interval relative to soma, overall” value (first study, FIG. 8A, old vs treatment group, p<0.05) was “significant reductions at a distance of 120-150 micron from the soma between old and young mice as well as between old and the treatment group” and the “frequency of intersections × 30 micron interval, basal dendrites” value (first study, FIG. 8B, old vs treatment group, p>0.05) was “a trend of decrease was found at 120-150 micron interval from soma between Old and Young as well as old and the treatment group”. The “frequency of intersections × 30 micron interval, apical dendrites” value (first study, FIG. 8C, treatment group vs old mice, p<0.05) was “higher frequency at 120-150 micron interval from soma than old mice”, the total spine counts (washout study, FIG. 15A, Old+Treatment vs Old mice, p<0.05) was “more spine counts than Old mice” and the total spine counts (washout study, FIG. 15A, Washout (1 week after 8 weeks GL-II-73) vs Old mice, p<0.05) was “more spine counts than Old mice”. For the same compound, the “total spine counts, apical dendrites” value [4] was “higher spine counts”, the “total spine counts, basal dendrites” value [4] was “higher spine counts” and the “total spine counts, apical dendrites” value [5] was “higher spine counts”. For the same compound, the “total spine counts, basal dendrites” value [5] was “higher spine counts”, the overall spine density (washout study, FIG. 16A, Old+Treatment vs Old mice, p<0.05) was “higher spine density than Old mice” and the overall spine density (washout study, FIG. 16A, Washout vs Old mice, p<0.05) was “higher spine density than Old mice”. For the same compound, the “spine density, apical dendrites” value [6] was “Old mice exhibited a lower spine density than Young, Old+Treatment and Washout mice”, the “spine density, basal dendrite” value [6] was “Old mice showed a significant decrease of spine density in the basal dendrite as compared to Young, Old+Treatment and Washout mice” and the “spine density, apical dendrites” value [7] was “Old mice exhibited a lower spine density than Young, Old+Treatment and Washout mice”. The “spine density, basal dendrite” value [7] was “Old mice showed a significant decrease of spine density in the basal dendrite as compared to Young, Old+Treatment and Washout mice”, the “spine density versus branch orders, overall” value [8] was “higher spine density at the 2nd to 6th” and the “spine density versus branch orders, overall” value [9] was 3rd to 6th branch orders. For the same compound, the “spine density versus branch orders, basal dendrites” value [8] was “higher density at the 5th branch order than Old mice”, the “spine density versus branch orders, basal dendrites” value [9] was “higher density at the 5th branch order than Old mice” and the “spine density versus branch orders, apical dendrites” value [8] was “higher density at the 2nd branch order than Old mice”. The “spine density versus branch orders, apical dendrites” value [9] was “higher spine density at the 5th to 6th branch orders than Old mice”, the “spine density at 30 micron intervals from the soma, overall” value [8] was “higher spine density at 150 um to 210 um from soma” and the “spine density at 30 micron intervals from the soma, overall” value [9] was “higher spine density at 90 um to 210 um from soma”. The “spine density at 30 micron intervals from the soma, basal dendrites” value [8] was “higher density between 150 um and 180 um from soma”, the “spine density at 30 micron intervals from the soma, basal dendrites” value [9] was “higher density between 120 um and 180 um from the soma than Old mice” and the “spine density at 30 micron intervals from the soma, apical dendrites” value [8] was “higher density at 180 um to 210 um from soma”. The “spine density at 30 micron intervals from the soma, apical dendrites” value [9] was “higher spine density at 120 um to 210 um from soma”.
